In assay [1] the target is T1, full-length EI (Escherichia coli, UniProt P08839). Conditions: read-out: Km,0 (Km in the absence of inhibitor); PEP as substrate of EI; kept fixed to its literature value, no reference given; cited from earlier work.
Another assay deals with T2, EIC domain of EI (Escherichia coli, UniProt P08839).
T2 construct: made in house
As to the kind of experiment: CSP-based NMR titration experiments (equilibrium dissociation constant). The class given is binding, E. coli. The source says:
The affinity of the newly discovered EI ligands was investigated by acquiring CSP-based, NMR titration experiments on ^15N-labeled EIN or EIC at increasing concentration of small molecule ([Fielding, 2007]). The data were fit using a standard equilibrium dissociation equation ([Granot, 1983]) to obtain the equilibrium dissociation constant (KD) per each analyzed complex (Fig. 2d). This analysis identified six small molecules that bind the EIC domain of EI with low mM affinity (Fig. 2e).
NMR titration experiments were measured at 37 °C in 20 mM Tris (pH 7.4), 100 mM NaCl, 4 mM MgCl2, 2 mM DTT, and 5% D2O. The protein concentration was 400 µM and the concentration of small molecule was varied between 0 and 8 mM. Spectra were processed using NMRPipe ([Delaglio et al., 1995]) and analyzed using the program SPARKY (http://www.cgl.ucsf.edu/home/sparky). Assignment of the ^1H-^15N cross-peaks for the EIC-small molecule complexes was performed by titration experiments, following the change in ^1H-^15N cross-peak positions as a function of added small molecule. Weighted combined ^1H/^15N chemical shift perturbations (ΔH/N) resulting from the addition of increasing concentrations of small molecule were calculated using the following equation ([Mulder et al., 1999]):(1) ΔH/N=ΔδHWH^2+ΔδNWN^2 where WH (=1) and WN (=0.154) are weighting factor for the ^1H and ^15N amide shifts, respectively. ΔδH and ΔδN are the ^1H and ^15N chemical shift differences in ppm, respectively, between free and bound states. The equilibrium dissociation constants (KD) for the EIC-inhibitor complexes were obtained by fitting the changes in ΔH/N with increasing concentration of small molecule using the equation ([Granot, 1983]):(2) ΔH/N=Δ0P+L+KD-P+L-KD^2-4PL/2P where Δ0 is the weighted combined ^1H/^15N chemical shift at saturation, and P and L are the protein and small molecule concentrations, respectively.

Assay [2] deals with T1, full-length EI. Kind of assay: Enzyme kinetic assay of phosphoryl transfer from PEP to HPr by 1H-15N SOFAST NMR. In kind it is biochemical, E. coli. More on the design: phosphoryl transfer from PEP to HPr catalyzed by full-length EI; made in house. Conditions: 0.0, 1.5 and 6.0 mM compound, 25 °C, pH 7.4. The source says:
In such graphs, the y and x intercepts are equivalent to the inverse of the maximum velocity (1/Vmax) and the negative inverse of the Michaelis constant (−1/Km), respectively.
Vmax,0 (the value of Vmax in the absence of inhibitor) was optimized to maximize the agreement between experimental and simulated data (Fig. 3c).
Enzyme kinetic assay we run by measuring the rate of phosphoryl transfer from PEP to HPr catalyzed by full-length EI by using ^1H-^15N SOFAST NMR spectra as described previously ([Nguyen et al., 2018]). Reaction were run at 25 °C in 20 mM Tris (pH 7.4), 100 mM NaCl, 4 mM MgCl2, 2 mM DTT, and 5% D2O. The assay was performed in triplicate. The enzyme kinetic data measured at different concentration of inhibitor were fit using a completive or mixed inhibition model:(3) Competitiveinhibition-v0=Vmax,0PEP/Km,01+I/KI,S+PEP (4) Mixedinhibition-v0=Vmax,0PEP/Km,01+I/KI,S+PEP1+I/KI,I where v0 is the initial velocity of the enzymatic reaction, [PEP] and [I] are the concentration of substrate and inhibitor, respectively, KI,s is the equilibrium dissociation constant for the enzyme-inhibitor complex, KI,I is the dissociation constant for the interaction between the inhibitor and the enzyme-PEP complex, and Km,0 and Vmax,0 are the Michaelis constant and maximum velocity in the absence of inhibitors, respectively. The seven measured datasets (in the absence of inhibitor, and in the presence of two concentrations of each inhibitor) were fit globally.

[3] abbreviates: 15N-labeled EIC 400 µM, small molecule 0-8 mM, 37 °C, pH 7.4, read-out: KD.

Where two headings read alike, the source gives them in different places.

The Km is the substrate concentration at which the rate is half of its maximum. Consider `C=C(OP(=O)(O)O)C(=O)O` [PEP, phosphoenolpyruvate], for which the Km at full-length EI [1] is 350 µM.

In the case of `NCc1ccc(-c2ccc(F)cc2)o1` [compound 1], the Kd at EIC domain of EI (setting [3]) stood at 2.5 mM. For the same compound, the “Type of inhibition of EI (Lineweaver-Burk analysis)” value (from here on “Type of inhibition of EI”) at full-length EI [2] was “competitive inhibitors”.

Turning to `CNCc1[nH]c2ccccc2c1C` [compound 2], the Kd on EIC domain of EI (setting [3]) worked out at 2.6 mM. Also, the “Type of inhibition of EI” value at full-length EI [2] is on record as “competitive inhibitors”.

Take `Cc1nn(Cc2ccc(F)cc2)c(C)c1N` [compound 3]: the Kd was 3.2 mM at EIC domain of EI (setting [3]); 3.2 ± 0.2 mM on EIC domain of EI (EIC, residues in the allosteric binding pocket fitted separately, read-out: KD, CSP titration data fitted for the residues in the allosteric binding pocket); 3.5 ± 0.3 mM on EIC domain of EI (EIC, residues in the β3α3 loop fitted separately, read-out: KD, CSP titration data fitted for the residues in the β3α3 loop). In addition, the “Type of inhibition of EI” value at full-length EI [2] is listed as “mixed inhibitor”.

As for `NCc1ccc(Br)s1` [compound 4], on EIC domain of EI (setting [3]), the Kd amounted to 2.9 mM.

Take `CC(C)Oc1ccc(Cl)cc1CN` [compound 5]: the Kd on EIC domain of EI (setting [3]) was found to be 4.3 mM.

`CC(CN)Nc1ccc([N+](=O)[O-])cc1` (stereo not drawn) [compound 6]: the Kd on EIC domain of EI (setting [3]) was 4.1 mM.
